The source of these data is ChEMBL document CHEMBL1201862, “PubChem BioAssay data set” (2004).

One experiment addresses T1, Leucine aminopeptidase (Plasmodium falciparum 3D7, UniProt Q8IL11).
T1 sequence (Q8IL11 whole entry): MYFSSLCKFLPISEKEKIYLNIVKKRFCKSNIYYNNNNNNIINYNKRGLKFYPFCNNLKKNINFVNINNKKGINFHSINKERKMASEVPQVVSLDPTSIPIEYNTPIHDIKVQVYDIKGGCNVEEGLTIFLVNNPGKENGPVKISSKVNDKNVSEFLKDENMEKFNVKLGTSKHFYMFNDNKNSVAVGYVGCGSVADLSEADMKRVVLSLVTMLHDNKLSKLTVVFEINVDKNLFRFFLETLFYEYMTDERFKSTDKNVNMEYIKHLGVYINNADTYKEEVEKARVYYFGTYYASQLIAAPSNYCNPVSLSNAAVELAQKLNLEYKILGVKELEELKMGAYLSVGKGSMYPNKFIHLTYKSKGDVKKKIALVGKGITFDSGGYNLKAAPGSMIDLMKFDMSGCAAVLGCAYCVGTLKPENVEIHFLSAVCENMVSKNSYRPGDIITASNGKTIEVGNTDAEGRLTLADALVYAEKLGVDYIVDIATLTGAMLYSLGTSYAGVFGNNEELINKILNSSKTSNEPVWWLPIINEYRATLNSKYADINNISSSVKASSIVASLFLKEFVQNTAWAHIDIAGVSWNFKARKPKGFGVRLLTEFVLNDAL
Description: P. falciparum M17LAP inhibitors, primary screen, biochemical, fluorogenic H-Leu-NHMec substrate, 1536-well (AID 1619). It counts as functional.

In the next experiment the target is T2, Aspartyl aminopeptidase (Plasmodium falciparum 3D7, UniProt Q8I2J3).
T2 sequence (Q8I2J3 whole entry): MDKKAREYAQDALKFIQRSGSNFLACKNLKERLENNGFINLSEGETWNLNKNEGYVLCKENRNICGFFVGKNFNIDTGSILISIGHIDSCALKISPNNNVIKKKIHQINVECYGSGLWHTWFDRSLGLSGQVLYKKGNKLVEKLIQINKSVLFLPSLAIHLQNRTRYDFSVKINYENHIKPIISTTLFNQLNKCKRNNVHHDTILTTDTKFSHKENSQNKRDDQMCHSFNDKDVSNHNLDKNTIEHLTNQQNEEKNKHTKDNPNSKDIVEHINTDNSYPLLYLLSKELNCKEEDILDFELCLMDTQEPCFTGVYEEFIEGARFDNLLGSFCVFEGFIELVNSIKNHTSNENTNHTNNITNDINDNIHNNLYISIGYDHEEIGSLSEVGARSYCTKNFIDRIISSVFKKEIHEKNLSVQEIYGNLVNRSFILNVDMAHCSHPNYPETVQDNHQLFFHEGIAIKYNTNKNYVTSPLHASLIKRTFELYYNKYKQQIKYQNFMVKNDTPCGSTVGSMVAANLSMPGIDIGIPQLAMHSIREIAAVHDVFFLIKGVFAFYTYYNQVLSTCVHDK
Description: Counterscreen for inhibitors of M1 and M17 aminopeptidases: QFRET-based biochemical high throughput dose response assay for inhibitors of the Plasmodium falciparum M18 Aspartyl Aminopeptidase (PFM18AAP). [Related PubChem assays: 1619 (Screening assay (M17LAP inhibitors).), 1445 (Screening assay (M1AAP inhibitors).)].

The target of another experiment is Procathepsin L (Homo sapiens, UniProt P07711). Briefly: CTSL1 protease inhibition – biochemical, QFRET, 1536-well, counter-screen for M1/M17 aminopeptidase inhibitor project, dose response (AID 2214).
The nature of experiment [1]: antiviral protection against BTV-induced cell death – arbovirus, BSR cells, confirmation (AID 1250).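 Further: protection from viral cytopathic effect measured as cell viability by ATP luminescence.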 The format is functional.
Experiment [2] in a line: NIH3T3 cell viability loss – ATP luminescence, mouse fibroblasts, counter-screen, dose response (AID 2010).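 Further: cells exposed to compound for about 90 hours before reading.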 The format is functional, cell-based.
A short description of experiment [3]: Trypanosoma cruzi growth suppression in host cells – NIH3T3 host cells, beta-gal luminescence, confirmation (AID 2044).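 Further: intracellular parasites grown in NIH/3T3 mouse fibroblasts as host cells; luminescent beta-galactosidase reporter signal from transgenic T. cruzi replicating inside host cells; inhibitors lower the luminescence signal.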 The format is functional, cell-based.
The target in experiment [4] is T3, Corticotropin-releasing factor receptor 2/Corticotropin-releasing factor-binding protein (Homo sapiens, UniProt P24387+Q13324).
T3 sequence (Q13324 whole entry): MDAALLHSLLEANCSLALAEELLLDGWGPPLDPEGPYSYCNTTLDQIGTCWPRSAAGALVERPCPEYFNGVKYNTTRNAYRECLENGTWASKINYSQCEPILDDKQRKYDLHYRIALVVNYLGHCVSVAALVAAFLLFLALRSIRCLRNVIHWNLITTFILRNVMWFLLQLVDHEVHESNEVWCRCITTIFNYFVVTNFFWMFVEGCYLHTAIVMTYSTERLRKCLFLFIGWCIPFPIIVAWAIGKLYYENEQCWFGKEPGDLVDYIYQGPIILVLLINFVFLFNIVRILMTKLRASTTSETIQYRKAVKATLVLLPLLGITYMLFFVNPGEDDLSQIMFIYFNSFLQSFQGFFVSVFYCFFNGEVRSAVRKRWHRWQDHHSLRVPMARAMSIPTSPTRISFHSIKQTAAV
T3 sequence (P24387 whole entry): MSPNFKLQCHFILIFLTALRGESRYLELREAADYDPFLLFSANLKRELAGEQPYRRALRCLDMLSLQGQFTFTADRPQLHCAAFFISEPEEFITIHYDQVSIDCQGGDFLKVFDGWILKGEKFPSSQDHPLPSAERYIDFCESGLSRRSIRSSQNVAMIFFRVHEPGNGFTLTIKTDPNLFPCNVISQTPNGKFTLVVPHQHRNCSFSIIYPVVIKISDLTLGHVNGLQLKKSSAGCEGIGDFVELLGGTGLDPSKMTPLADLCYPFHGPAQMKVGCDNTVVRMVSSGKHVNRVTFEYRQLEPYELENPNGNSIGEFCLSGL
Briefly: activators of CRF receptor 2 with binding protein – uHTS hits, confirmation (AID 602473). It counts as functional. The note with it: read-out: EC50_Mean.

A short description of experiment [5]: HEK-293T viability loss after treatment – luminescence, T-cell screen hits, cytotoxicity control for TCR NF-kB inhibitor project, dose response (AID 489026).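 Further: cells exposed to compound about 14 hours before the viability readout.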 The format is functional, cell-based.
For experiment [6], the system named is HEK293. Briefly: cells. The format is functional, cell-based. The note with it: Homo sapiens.
For a further experiment, the target named is Tumor necrosis factor (Homo sapiens, UniProt P01375). Description: analog potency on TNFa NF-kB signaling – cell-based, revised, SAR follow-up (AID 2337). The format is functional.
For experiment [7], the target named is T4, Calpain-2 catalytic subunit (Sus scrofa, UniProt P43367).
T4 sequence (P43367 whole entry): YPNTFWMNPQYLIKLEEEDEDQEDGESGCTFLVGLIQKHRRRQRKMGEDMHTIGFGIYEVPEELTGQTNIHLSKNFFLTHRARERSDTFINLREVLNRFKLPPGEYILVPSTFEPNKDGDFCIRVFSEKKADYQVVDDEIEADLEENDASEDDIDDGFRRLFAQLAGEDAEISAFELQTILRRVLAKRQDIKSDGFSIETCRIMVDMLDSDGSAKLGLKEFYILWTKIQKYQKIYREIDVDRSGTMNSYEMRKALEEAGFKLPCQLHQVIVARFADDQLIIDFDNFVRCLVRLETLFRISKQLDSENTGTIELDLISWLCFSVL
Briefly: m-calpain protease blockers, concentration series – biochemical, fluorogenic peptide substrate, dose response (AID 1420). The format is functional.

The subject of experiment [8] is HEK293. Description: NOD2 signaling inhibitors in MDP-stimulated cells, cell-based, uHTS, luminescence (AID 2001). Particulars: Homo sapiens. It counts as functional.
The target of experiment [9] is T5, Nucleotide-binding oligomerization domain-containing protein 1 (Homo sapiens, UniProt Q9Y239).
T5 sequence (Q9Y239 whole entry): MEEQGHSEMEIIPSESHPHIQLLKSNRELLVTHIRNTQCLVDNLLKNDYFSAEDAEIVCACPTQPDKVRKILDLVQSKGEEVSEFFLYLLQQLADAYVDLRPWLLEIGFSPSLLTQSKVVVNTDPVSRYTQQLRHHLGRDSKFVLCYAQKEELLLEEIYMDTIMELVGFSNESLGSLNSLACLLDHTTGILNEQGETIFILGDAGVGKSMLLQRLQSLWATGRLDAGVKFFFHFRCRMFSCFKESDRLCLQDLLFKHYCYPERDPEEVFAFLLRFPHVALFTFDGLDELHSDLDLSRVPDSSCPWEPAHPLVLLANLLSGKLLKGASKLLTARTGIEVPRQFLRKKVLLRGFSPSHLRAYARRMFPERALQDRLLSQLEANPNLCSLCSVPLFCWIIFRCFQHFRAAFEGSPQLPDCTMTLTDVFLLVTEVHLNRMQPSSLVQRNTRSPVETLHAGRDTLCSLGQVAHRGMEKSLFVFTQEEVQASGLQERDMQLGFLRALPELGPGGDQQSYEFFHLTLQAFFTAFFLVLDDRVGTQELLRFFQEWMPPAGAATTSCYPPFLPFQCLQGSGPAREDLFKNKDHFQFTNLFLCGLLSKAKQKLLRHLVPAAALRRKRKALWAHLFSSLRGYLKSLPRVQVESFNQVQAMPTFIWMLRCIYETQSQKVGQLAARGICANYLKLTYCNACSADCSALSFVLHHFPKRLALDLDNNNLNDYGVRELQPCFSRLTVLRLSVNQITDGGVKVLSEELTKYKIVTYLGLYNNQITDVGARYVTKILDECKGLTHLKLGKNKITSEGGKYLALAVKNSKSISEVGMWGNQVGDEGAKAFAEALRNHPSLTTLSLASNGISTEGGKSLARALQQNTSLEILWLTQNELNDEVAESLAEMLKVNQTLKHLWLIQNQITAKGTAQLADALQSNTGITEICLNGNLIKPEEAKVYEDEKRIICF
Briefly: blockers of NOD1 pathway activity – revised, SAR follow-up (AID 2333). It counts as functional.

The target of experiment [10] is T3, Corticotropin-releasing factor receptor 2/Corticotropin-releasing factor-binding protein. Description: Dose Response confirmation of uHTS hits for small molecule antagonists of the CRF-binding protein and CRF-R2 receptor complex. The format is functional. The note with it: read-out: IC50_Mean.
The subject of experiment [11] is HEK293. Briefly: cells. The note with it: Homo sapiens.
The test system of experiment [12] is HEK293. Briefly: cells. The format is functional, cell-based. Particulars: Homo sapiens. The source holds these as a separate data set.
Experiment [13] concerns HEK293. Briefly: inhibition of NOD1-driven NF-kB reporter – cell-based, luminescence, uHTS, primary screen (AID 1578). The note with it: Homo sapiens. The format is functional.

Each structure is given as a SMILES string. Activity calls are given as the source filed them.

Procathepsin L, sequence (P07711 whole entry): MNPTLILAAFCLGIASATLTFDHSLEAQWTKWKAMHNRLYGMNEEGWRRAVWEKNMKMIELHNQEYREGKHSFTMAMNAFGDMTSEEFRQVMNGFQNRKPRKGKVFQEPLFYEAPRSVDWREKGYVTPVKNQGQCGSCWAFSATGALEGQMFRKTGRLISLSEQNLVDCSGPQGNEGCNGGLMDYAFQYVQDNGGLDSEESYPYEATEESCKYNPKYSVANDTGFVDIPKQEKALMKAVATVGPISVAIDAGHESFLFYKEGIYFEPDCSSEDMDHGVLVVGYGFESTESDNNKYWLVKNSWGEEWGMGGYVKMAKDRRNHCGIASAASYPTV
Tumor necrosis factor, sequence (P01375 whole entry): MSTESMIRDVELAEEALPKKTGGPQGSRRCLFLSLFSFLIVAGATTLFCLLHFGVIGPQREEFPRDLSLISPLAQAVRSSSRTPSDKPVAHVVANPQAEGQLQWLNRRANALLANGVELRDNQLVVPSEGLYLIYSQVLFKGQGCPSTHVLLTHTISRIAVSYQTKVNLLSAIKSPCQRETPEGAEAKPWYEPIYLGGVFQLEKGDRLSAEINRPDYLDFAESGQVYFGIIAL

Turning to `O=C(CSc1nccc(=O)[nH]1)Nc1ccc(F)c(Cl)c1`, the values for the IC50 at Leucine aminopeptidase, on Aspartyl aminopeptidase and against Procathepsin L were 6.03 µM (active), > 73.5 µM (not active) and > 59.6 µM (not active), respectively.
On to `CC1CCCCN1c1nnc(NC(=O)c2cc(-c3ccc(Br)cc3)on2)s1` (stereo not drawn), for which, in experiment [1], the IC50 is 29 µM (active).
In the case of `CCc1ccc(Nc2nnc(SC3CCOC3=O)s2)cc1` (stereo not drawn), the IC50 at Leucine aminopeptidase was 2.64 µM (active); at Aspartyl aminopeptidase, > 73.5 µM (not active); at Procathepsin L, > 59.6 µM (not active).
Turning to `S=C(NCc1ccccc1)N1CCn2cccc2C1c1cccnc1` (stereo not drawn), the values for the EC50 in [2] and in [3] were > 60 µM (inconclusive) and 2.95 µM (active), respectively. Moreover, the IC50 in experiment [1] is 22.1 µM (active).
Regarding `COC(=O)c1c(-c2ccco2)csc1NC(=O)C1CC=CCC1C(=O)O` (stereo not drawn), the IC50 was 1.39 µM (active) on Leucine aminopeptidase, > 73.5 µM (not active) against Aspartyl aminopeptidase and > 59.6 µM (not active) at Procathepsin L.
Take `O=C(Nc1ccc(Oc2cccnc2)nc1)c1ccc(C(F)(F)F)cc1`: the EC50 was > 53 µM (inactive) in [4] and 2.4 µM (active) with HEK293 [13]. The IC50 in experiment [5] was > 80 µM (inactive); in the experiment on HEK293 [6] it was > 20 µM (inactive); on Tumor necrosis factor it was 2.79 µM (active); in [7], 48.1 µM (not active); in the experiment on HEK293 [8] it was 8.57 µM (active); in experiment [9], 2.26 µM (active). For the same compound, the IC50 was > 47.1 µM (inactive) in [10], > 20 µM (inactive) in the experiment on HEK293 [11] and 4.32 µM (active) in the experiment with HEK293 [12].
As for `COC(=O)/C=C/c1sc2nc(C)cc(C)c2c1/N=C/N(C)C`, the IC50 in experiment [1] is 34.4 µM (active).
For `COc1ccc(OC)c(NC(=O)C2C(C(=O)O)C3(Cl)C(Cl)=C(Cl)C2(Cl)C3(Cl)Cl)c1` (stereo not drawn), the IC50 at Leucine aminopeptidase is < 1 µM (active); on Aspartyl aminopeptidase it was > 73.5 µM (not active); against Procathepsin L, > 59.6 µM (not active).
